Results on ten compounds are retold here after patent publication US20240327382A1 (ALMAC DISCOVERY LIMITED, priority 2021, published 2024).

Structures are written as SMILES. Bounds are passed on as bounds.

The target in the assay is T1, Full-length USP19 (Homo sapiens, UniProt O94966).
T1 construct: Full-length USP19 was purchased from Boston Biochem (E-576); purchased Boston Biochem E-576
T1 sequence (O94966 1-1318): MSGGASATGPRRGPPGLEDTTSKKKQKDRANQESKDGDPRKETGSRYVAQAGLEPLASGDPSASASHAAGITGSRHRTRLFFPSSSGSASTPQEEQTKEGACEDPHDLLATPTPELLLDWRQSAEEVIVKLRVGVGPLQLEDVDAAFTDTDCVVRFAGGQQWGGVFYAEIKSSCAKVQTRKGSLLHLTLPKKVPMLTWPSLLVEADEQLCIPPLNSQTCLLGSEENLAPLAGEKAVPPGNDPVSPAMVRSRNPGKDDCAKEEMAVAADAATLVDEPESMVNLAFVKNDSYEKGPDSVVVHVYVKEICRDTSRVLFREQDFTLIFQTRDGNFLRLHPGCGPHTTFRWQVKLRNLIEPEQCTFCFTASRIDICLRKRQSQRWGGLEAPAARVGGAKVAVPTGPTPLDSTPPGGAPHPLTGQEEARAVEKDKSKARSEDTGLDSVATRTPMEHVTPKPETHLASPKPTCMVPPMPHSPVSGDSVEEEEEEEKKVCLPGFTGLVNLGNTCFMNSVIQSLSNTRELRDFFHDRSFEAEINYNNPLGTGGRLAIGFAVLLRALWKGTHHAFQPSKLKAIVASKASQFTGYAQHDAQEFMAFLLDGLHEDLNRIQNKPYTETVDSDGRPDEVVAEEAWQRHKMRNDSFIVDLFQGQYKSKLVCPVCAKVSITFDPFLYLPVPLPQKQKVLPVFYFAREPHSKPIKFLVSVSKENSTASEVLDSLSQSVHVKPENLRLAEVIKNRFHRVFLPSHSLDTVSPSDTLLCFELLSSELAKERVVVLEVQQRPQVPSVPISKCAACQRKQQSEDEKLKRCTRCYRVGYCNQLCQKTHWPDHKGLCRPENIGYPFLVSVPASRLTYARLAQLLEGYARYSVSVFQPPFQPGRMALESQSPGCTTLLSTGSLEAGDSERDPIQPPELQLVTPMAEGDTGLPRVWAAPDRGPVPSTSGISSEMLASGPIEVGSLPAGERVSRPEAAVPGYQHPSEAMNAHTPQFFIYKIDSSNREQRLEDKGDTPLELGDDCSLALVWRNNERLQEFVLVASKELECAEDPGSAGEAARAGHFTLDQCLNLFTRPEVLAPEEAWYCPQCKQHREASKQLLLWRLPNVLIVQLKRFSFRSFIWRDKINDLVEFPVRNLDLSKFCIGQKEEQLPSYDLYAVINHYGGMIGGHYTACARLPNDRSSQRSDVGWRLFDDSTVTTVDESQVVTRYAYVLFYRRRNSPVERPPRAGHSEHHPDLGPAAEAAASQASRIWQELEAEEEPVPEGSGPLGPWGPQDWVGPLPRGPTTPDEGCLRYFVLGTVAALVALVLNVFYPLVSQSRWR
Kind of assay: USP19 fluorescence polarisation (FP) assay, Ubiquitin-Lys-TAMRA substrate. The class given is biochemical. The conditions noted are these: average of at least two duplicate experiments. The gist of the method:
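Fluorescence polarisation (excitation 530 nm, parallel and perpendicular emission at 575 nm) was recorded every 15 min for 90 min after adding the ubiquitin-Lys-TAMRA isopeptide (500 nM as dispensed). Beforehand, the full-length enzyme (2.5 nM as dispensed) sat 30 min at RT with compound diluted from 200 μM to 2 μM in HEPES pH 7.4 buffer with 150 mM NaCl, 5 mM DTT, 0.05% BSA and 0.05% CHAPS. Values normalised to uninhibited wells gave IC50s by non-linear fitting, each the mean of two or more duplicate runs.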
In the case of `CN[C@@H]1CCN(C(=O)N2CC[C@@H](Cn3cnc(-c4ccccc4C)cc3=O)C3(CCCC3)C2)[C@H](c2ccc(F)c(F)c2)C1` [Example 139, 3-(((R)-7-((2S,4R)-2-(3,4-Difluorophenyl)-4-(methylamino)piperidine-1-carbonyl)-7-azaspiro[4.5]decan-10-yl)methyl)-6-(0-tolyl)pyrimidin-4(3H)-one], the concentration for half-maximal inhibition (IC50) was less than 10 nM. Next, `CN(C)[C@@H]1CCN(C(=O)N2CC[C@@H](Cn3ccc(-c4ccccc4)cc3=O)C3(CCCC3)C2)[C@H](c2ccccc2)C1` [Example 46, 1-(((R)-7-((2S,4R)-4-(Dimethylamino)-2-phenylpiperidine-1-carbonyl)-7-azaspiro[4.5]decan-10-yl)methyl)-4-phenylpyridin-2(1H)-one]: 10 to 100 nM. Next, `CN[C@@H]1CCN(C(=O)N2CC[C@@H](Cn3cnc(C4CC4)cc3=O)C3(CCCC3)C2)[C@H](c2cc(F)ccc2F)C1` [Example 163, 6-Cyclopropyl-3-(((R)-7-((2S,4R)-2-(2,5-difluorophenyl)-4-(methylamino)piperidine-1-carbonyl)-7-azaspiro[4.5]decan-10-yl)methyl)pyrimidin-4(3H)-one]: less than 10 nM. Next, `CN[C@@H]1CCN(C(=O)N2CC[C@@H](Cn3cnc(-c4ccccc4OC)cc3=O)C3(CCCC3)C2)[C@H](c2ccccc2F)C1` [Example 103, 3-(((R)-7-((2S,4R)-2-(2-Fluorophenyl)-4-(methylamino)piperidine-1-carbonyl)-7-azaspiro[4.5]decan-10-yl)methyl)-6-(2-methoxyphenyl)pyrimidin-4(3H)-one]: less than 10 nM; `CC(C)N[C@@H]1CCN(C(=O)N2CC[C@@H](Cn3cnc(-c4ccccc4)cc3=O)C3(CCCC3)C2)[C@H](c2cc(F)cc(F)c2)C1` [Example 192, 3-(((R)-7-((2S,4R)-2-(3,5-Difluorophenyl)-4-(isopropylamino)piperidine-1-carbonyl)-7-azaspiro[4.5]decan-10-yl)methyl)-6-phenylpyrimidin-4(3H)-one]: less than 10 nM. Take `CC1(N[C@@H]2CCN(C(=O)N3CC[C@@H](Cn4cnc(-c5ccccc5)cc4=O)C4(CCCC4)C3)[C@H](c3ccccc3)C2)CC1` [Example 151, 3-(((R)-7-((2S,4R)-4-((1-Methylcyclopropyl)amino)-2-phenylpiperidine-1-carbonyl)-7-azaspiro[4.5]decan-10-yl)methyl)-6-phenylpyrimidin-4(3H)-one]: the IC50 was less than 10 nM. As for `CN[C@@H]1CCN(C(=O)N2CC[C@@H](Cn3cnc4ccc(Cl)cc4c3=O)C3(CCCC3)C2)[C@H](c2cc(F)ccc2F)C1` [Example 198, 6-Chloro-3-(((R)-7-((2S,4R)-2-(2,5-difluorophenyl)-4-(methylamino)piperidine-1-carbonyl)-7-azaspiro[4.5]decan-10-yl)methyl)quinazolin-4(3H)-one], the figure is less than 10 nM; as for `CN[C@@H]1CCN(C(=O)N2CC[C@@H](Cn3cnc(-c4ccccc4)cc3=O)C3(CCCC3)C2)[C@H](c2cc(F)cc(F)c2)C1` [Example 122, 3-(((R)-7-((2S,4R)-2-(3,5-Difluorophenyl)-4-(methylamino)piperidine-1-carbonyl)-7-azaspiro[4.5]decan-10-yl)methyl)-6-phenylpyrimidin-4(3H)-one], less than 10 nM; as for `O=C(N[C@@H]1CCN(C(=O)N2CC[C@@H](Cn3cnc(-c4ccccc4)cc3=O)C3(CCCC3)C2)[C@H](c2cc(F)ccc2F)C1)C1CC1` [Example 164, N-((2S,4R)-2-(2,5-Difluorophenyl)-1-((R)-10-((6-oxo-4-phenylpyrimidin-1(6H)-yl)methyl)-7-azaspiro[4.5]decane-7-carbonyl)piperidin-4-yl)cyclopropanecarbox-amide], less than 10 nM. Next, `COc1ccccc1-c1cc(=O)n(C[C@@H]2CCN(C(=O)N3CCNC[C@H]3c3cccc(F)c3)CC23CCCC3)cn1` [Example 115, 3-(((R)-7-((R)-2-(3-Fluorophenyl)piperazine-1-carbonyl)-7-azaspiro[4.5]decan-10-yl)methyl)-6-(2-methoxyphenyl)pyrimidin-4(3H)-one]: less than 10 nM.
